According to PubChem BioAssay AID328 (DTP/NCI, 2004):
Values joined by “and” are separate entries in the source; they are usually repeats but may differ in a detail not shown here. Equal entries are not always repeated. Inconclusive results and toxic doses are left out. Rule for the calls: active = survival T/C of 150% or more; inactive = T/C below 125% in these data.

System: BDF1 mice, P388 leukemia ip, median survival T/C
Assay: NCI In Vivo Anticancer Drug Screen. Data for tumor model P388 Leukemia (intraperitoneal) in B6D2F1 (BDF1) mice
Details: endpoint: median survival time, higher = longer survival
Summary of the method: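 Vehicle-dosed animals serve as the reference; survival of compound-dosed, tumour-implanted mice is divided by it.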

[1] = dose: 100.0 mg/kg/injection, schedule: Q01DX009 (ip), vehicle: saline with Tween-80
[2] = dose: 50.0 mg/kg/injection, schedule: Q01DX009 (ip), vehicle: saline with Tween-80
[3] = dose: 200.0 mg/kg/injection, schedule: Q01DX009 (ip), vehicle: saline with Tween-80
[4] = dose: 400.0 mg/kg/injection, schedule: Q01DX009 (ip), vehicle: saline with Tween-80
[5] = dose: 200.0 mg/kg/injection, schedule: Q04DX003 (ip), vehicle: saline with Tween-80
[6] = dose: 100.0 mg/kg/injection, schedule: Q01DX009 (ip), vehicle: Klucel (hydroxypropylcellulose) (HPC)
[7] = dose: 200.0 mg/kg/injection, schedule: Q01DX009 (ip), vehicle: Klucel (hydroxypropylcellulose) (HPC)
[8] = dose: 400.0 mg/kg/injection, schedule: Q01DX009 (ip), vehicle: Klucel (hydroxypropylcellulose) (HPC)
[9] = dose: 12.5 mg/kg/injection, schedule: Q01DX009 (ip), vehicle: saline
[10] = dose: 25.0 mg/kg/injection, schedule: Q01DX009 (ip), vehicle: saline
[11] = dose: 100.0 mg/kg/injection, schedule: Q04DX003 (ip), vehicle: saline with Tween-80
[12] = dose: 400.0 mg/kg/injection, schedule: Q04DX003 (ip), vehicle: saline with Tween-80
[13] = dose: 50.0 mg/kg/injection, schedule: Q01DX005 (ip), vehicle: saline with Tween-80
[14] = dose: 100.0 mg/kg/injection, schedule: Q01DX005 (ip), vehicle: saline with Tween-80

Measured: T/C

C[S+](C)CCCNC(=O)c1csc(-c2csc(CCNC(=O)c3ccccc3)n2)n1
inactive: dose: 8.0 mg/kg/injection, schedule: Q01DX009 (ip), vehicle: saline 90 % of control | dose: 16.0 mg/kg/injection, schedule: Q01DX009 (ip), vehicle: saline 100 % of control | dose: 32.0 mg/kg/injection, schedule: Q01DX009 (ip), vehicle: saline 95 % of control

CCN(CC)CCOC(=O)c1ccc(NC(=O)Nc2ccc(C(=O)OCCN(CC)CC)cc2)cc1
inactive: [1] 119 % of control

CCOC(=O)C(=CC(CC)(C(=O)OCC)C(=O)OCC)C(=O)OCC
inactive: dose: 100.0 mg/kg/injection, schedule: Q01DX009 (ip), vehicle: saline 95 % of control | dose: 200.0 mg/kg/injection, schedule: Q01DX009 (ip), vehicle: saline 104 % of control | dose: 400.0 mg/kg/injection, schedule: Q01DX009 (ip), vehicle: saline 104 % of control

CC(CN(C)C)C(=O)/C=C/c1ccccc1 (stereo unspecified)
inactive: dose: 18.75 mg/kg/injection, schedule: Q01DX009 (ip), vehicle: saline 100 % of control | dose: 37.5 mg/kg/injection, schedule: Q01DX009 (ip), vehicle: saline 109 % of control | dose: 75.0 mg/kg/injection, schedule: Q01DX009 (ip), vehicle: saline 109 % of control

Nc1nc(N)c2cc([N+](=O)[O-])ccc2n1
inactive: [2] 96 % of control | [1] 101 % of control | [3] 99 % of control | [4] 95 % of control

Cc1ccc(C(SCC(N)C(=O)O)(c2ccccc2)c2ccccc2)cc1 (stereo unspecified)
inactive: dose: 300.0 mg/kg/injection, schedule: Q04DX003 (ip), vehicle: saline with Tween-80 95 % of control
active: dose: 132.0 mg/kg/injection, schedule: Q04DX003 (ip), vehicle: saline with Tween-80 260 % of control | [5] 260 % of control

O=C1NC(c2ccccc2Cl)Nc2ccccc21 (stereo unspecified)
inactive: [6] 100 % of control and 115 % of control | [7] 115 % of control and 120 % of control

Cc1cc(S(=O)(=O)c2ccc(Cl)c(C)c2)ccc1Cl
inactive: [2] 105 % of control | [1] 100 % of control | [3] 91 % of control

O=C1NC(=O)C2C3C=CC(C12)C1C2C(=O)NC(=O)C2C31 (stereo unspecified)
inactive: dose: 12.5 mg/kg/injection, schedule: Q01DX009 (ip), vehicle: saline with Tween-80 108 % of control
active: [2] 168 % of control

CC1C(N2CCOCC2)CS1(=O)=O (stereo unspecified)
inactive: [6] 100 % of control | [7] 115 % of control | [8] 105 % of control

CN(C)c1ccc(/C=C/c2ccnc3ccccc23)cc1
inactive: dose: 5.0 mg/kg/injection, schedule: Q01DX010 (ip), vehicle: saline 95 % of control and 100 % of control | dose: 9.0 mg/kg/injection, schedule: Q01DX010 (ip), vehicle: saline 100 % of control | dose: 10.0 mg/kg/injection, schedule: Q01DX010 (ip), vehicle: saline 95 % of control and 100 % of control | dose: 18.0 mg/kg/injection, schedule: Q01DX010 (ip), vehicle: saline 109 % of control | dose: 20.0 mg/kg/injection, schedule: Q01DX010 (ip), vehicle: saline 90 % of control and 100 % of control | dose: 35.0 mg/kg/injection, schedule: Q01DX010 (ip), vehicle: saline 109 % of control | dose: 40.0 mg/kg/injection, schedule: Q01DX010 (ip), vehicle: saline 100 % of control

CCCCCCCCCC[N+]1([O-])CCCCC1
inactive: [9] 98 % of control | [10] 91 % of control | dose: 50.0 mg/kg/injection, schedule: Q01DX009 (ip), vehicle: saline 94 % of control

CCC[CH2][Sn]1([CH2]CCC)[S]CC[N]1S(=O)(=O)c1ccc(C)cc1
inactive: dose: 3.0 mg/kg/injection, schedule: Q01DX009 (ip), vehicle: gum acacia 119 % of control

CCCCCCCCNCCCCCCCC
inactive: dose: 9.0 mg/kg/injection, schedule: Q01DX009 (ip), vehicle: gum acacia 108 % of control and 113 % of control | dose: 9.0 mg/kg/injection, schedule: Q04DX003 (ip), vehicle: gum acacia 100 % of control | dose: 18.0 mg/kg/injection, schedule: Q01DX009 (ip), vehicle: gum acacia 95 % of control and 108 % of control | dose: 18.0 mg/kg/injection, schedule: Q04DX003 (ip), vehicle: gum acacia 95 % of control | dose: 37.0 mg/kg/injection, schedule: Q01DX009 (ip), vehicle: gum acacia 104 % of control and 116 % of control | dose: 37.0 mg/kg/injection, schedule: Q04DX003 (ip), vehicle: gum acacia 100 % of control

C[N+]1(C)CCCCC1
inactive: [9] 95 % of control and 100 % of control | dose: 12.5 mg/kg/injection, schedule: Q04DX003 (ip), vehicle: saline with Tween-80 101 % of control | [10] 98 % of control and 100 % of control | dose: 50.0 mg/kg/injection, schedule: Q04DX003 (ip), vehicle: saline 100 % of control

CC(C)C1OC(=O)C=C2C3(C)CC=CC4(C)C(=O)OC(C43)C3OC213 (stereo unspecified)
inactive: dose: 5.0 micrograms/kg/injection, schedule: Q01DX009 (ip), vehicle: saline + alcohol 109 % of control | dose: 20.0 micrograms/kg/injection, schedule: Q01DX009 (ip), vehicle: saline + alcohol 100 % of control | dose: 80.0 micrograms/kg/injection, schedule: Q01DX009 (ip), vehicle: saline + alcohol 90 % of control | dose: 250.0 micrograms/kg/injection, schedule: Q01DX009 (ip), vehicle: saline + alcohol 109 % of control | dose: 1000.0 micrograms/kg/injection, schedule: Q01DX009 (ip), vehicle: saline + alcohol 109 % of control | dose: 4000.0 micrograms/kg/injection, schedule: Q01DX009 (ip), vehicle: saline + alcohol 104 % of control

CC1OC(Oc2c(-c3ccc(O)c(O)c3)oc3cc(O)cc(O)c3c2=O)C(O)C(O)C1O (stereo unspecified)
inactive: [1] 109 % of control | [11] 113 % of control | [3] 104 % of control | [5] 109 % of control | dose: 264.0 mg/kg/injection, schedule: Q04DX003 (ip), vehicle: saline with Tween-80 104 % of control | [4] 118 % of control | [12] 104 % of control | dose: 600.0 mg/kg/injection, schedule: Q04DX003 (ip), vehicle: saline with Tween-80 104 % of control

COc1ccc(CC(Cc2ccc(OC)c(OC)c2)NC=O)cc1OC
inactive: [1] 99 % of control | [11] 101 % of control | [3] 91 % of control | [5] 102 % of control | [4] 87 % of control | [12] 116 % of control

CC(C)(C)C1COP(=O)(c2ccccc2)N(c2ccccc2)C1 (stereo unspecified)
inactive: [13] 92 % of control | [14] 91 % of control

C1CC[CH]([Sn]([CH]2CCCCC2)[CH]2CCCCC2)CC1
inactive: dose: 0.78 mg/kg/injection, schedule: Q01DX009 (ip), vehicle: saline with Tween-80 98 % of control | dose: 1.56 mg/kg/injection, schedule: Q01DX009 (ip), vehicle: saline with Tween-80 89 % of control

CCCC/C=C/CO
inactive: [2] 108 % of control | [1] 103 % of control

O=C1OP2(c3ccccc3)(OC(=O)c3ccccc32)c2ccccc21
inactive: [2] 91 % of control | [1] 96 % of control

S=c1nc[nH]c2c1ccc1[nH]cnc12
inactive: dose: 12.5 mg/kg/injection, schedule: Q01DX005 (ip), vehicle: saline with Tween-80 99 % of control | dose: 25.0 mg/kg/injection, schedule: Q01DX005 (ip), vehicle: saline with Tween-80 100 % of control | [13] 99 % of control and 107 % of control | [14] 90 % of control | dose: 200.0 mg/kg/injection, schedule: Q01DX005 (ip), vehicle: saline with Tween-80 104 % of control

NC(=O)C(N)=O
inactive: [6] 103 % of control | [7] 93 % of control | [8] 109 % of control

CCCCCCCCCCCCCCSC(CC(=O)O)C(=O)NNC(N)=S (stereo unspecified)
inactive: dose: 87.5 mg/kg/injection, schedule: Q01DX009 (ip), vehicle: saline with Tween-80 101 % of control | dose: 175.0 mg/kg/injection, schedule: Q01DX009 (ip), vehicle: saline with Tween-80 101 % of control | dose: 350.0 mg/kg/injection, schedule: Q01DX009 (ip), vehicle: saline with Tween-80 113 % of control

C/C(N=Nc1ccc([N+](=O)[O-])cc1)=N\Nc1ccccc1
inactive: [6] 94 % of control | dose: 100.0 mg/kg/injection, schedule: Q04DX003 (ip), vehicle: Klucel (hydroxypropylcellulose) (HPC) 91 % of control | [7] 100 % of control | dose: 200.0 mg/kg/injection, schedule: Q04DX003 (ip), vehicle: Klucel (hydroxypropylcellulose) (HPC) 87 % of control | [8] 100 % of control | dose: 400.0 mg/kg/injection, schedule: Q04DX003 (ip), vehicle: Klucel (hydroxypropylcellulose) (HPC) 104 % of control

COC(=O)N1c2ccc(OC)cc2C=CC1C#N (stereo unspecified)
inactive: [1] 100 % of control | [3] 100 % of control | [4] 100 % of control
